Results published in publication PMC10008561 (Nature Communications, 2023).
Values joined by “and” are separate entries in the source; they are usually repeats but may differ in a detail not shown here. Equal values may be shown once. Read-outs that look alike come from different tables or passages of the source.

How the values were obtained:
Test in all cases: cell-based
human KOR (Gi2) [1] = target: T1, human KOR (Gi2) (Homo sapiens, UniProt P41145, K227A)
T1 construct: expressed in transfected cells; host or cells: HEK293T
T1 sequence (P41145 whole entry K227A): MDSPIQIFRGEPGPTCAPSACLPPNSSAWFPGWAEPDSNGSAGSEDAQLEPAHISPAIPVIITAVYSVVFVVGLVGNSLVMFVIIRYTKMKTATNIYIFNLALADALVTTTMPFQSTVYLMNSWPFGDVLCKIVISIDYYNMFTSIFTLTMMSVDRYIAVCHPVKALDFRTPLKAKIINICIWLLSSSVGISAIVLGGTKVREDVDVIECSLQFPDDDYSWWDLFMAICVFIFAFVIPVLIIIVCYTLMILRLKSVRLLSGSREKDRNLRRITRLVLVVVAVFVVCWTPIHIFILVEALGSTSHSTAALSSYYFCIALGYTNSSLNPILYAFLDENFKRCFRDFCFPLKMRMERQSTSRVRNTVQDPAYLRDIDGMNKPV

human KOR (Gi2) [2] = target: T2, human KOR (Gi2) (Homo sapiens, UniProt P41145, D334A)
T2 construct: expressed in transfected cells; host or cells: HEK293T
T2 sequence (P41145 whole entry D334A): as the sequence (P41145 whole entry K227A) above, with A227K, D334A counted along it

human KOR (Gi2) [3] = target: T3, human KOR (Gi2) (Homo sapiens, UniProt P41145, T94V)
T3 construct: expressed in transfected cells; host or cells: HEK293T
T3 sequence (P41145 whole entry T94V): as the sequence (P41145 whole entry K227A) above, with T94V, A227K counted along it

human KOR (Gi2) [4] = target: T4, human KOR (Gi2) (Homo sapiens, UniProt P41145, Y139L)
T4 construct: expressed in transfected cells; host or cells: HEK293T
T4 sequence (P41145 whole entry Y139L): as the sequence (P41145 whole entry K227A) above, with Y139L, A227K counted along it

human KOR (Gi2) [5] = target: T5, human KOR (Gi2) (Homo sapiens, UniProt P41145, D266A)
T5 construct: expressed in transfected cells; host or cells: HEK293T
T5 sequence (P41145 whole entry D266A): as the sequence (P41145 whole entry K227A) above, with A227K, D266A counted along it

human KOR (Gi2) [6] = target: T6, human KOR (Gi2) (Homo sapiens, UniProt P41145, G319L)
T6 construct: expressed in transfected cells; host or cells: HEK293T
T6 sequence (P41145 whole entry G319L): as the sequence (P41145 whole entry K227A) above, with A227K, G319L counted along it

human KOR (Gi2) [7] = target: T7, human KOR (Gi2) (Homo sapiens, UniProt P41145, Q115N)
T7 construct: expressed in transfected cells; host or cells: HEK293T
T7 sequence (P41145 whole entry Q115N): as the sequence (P41145 whole entry K227A) above, with Q115N, A227K counted along it

human KOR (Gi2) [8] = target: T8, human KOR (Gi2) (Homo sapiens, UniProt P41145, K200A)
T8 construct: expressed in transfected cells; host or cells: HEK293T
T8 sequence (P41145 whole entry K200A): as the sequence (P41145 whole entry K227A) above, with K200A, A227K counted along it

human KOR (Gi2) [9] = target: T9, human KOR (Gi2) (Homo sapiens, UniProt P41145, E297A)
T9 construct: expressed in transfected cells; host or cells: HEK293T
T9 sequence (P41145 whole entry E297A): as the sequence (P41145 whole entry K227A) above, with A227K, E297A counted along it

human KOR (Gi2) [10] = target: T10, human KOR (Gi2) (Homo sapiens, UniProt P41145, N322A)
T10 construct: expressed in transfected cells; host or cells: HEK293T
T10 sequence (P41145 whole entry N322A): as the sequence (P41145 whole entry K227A) above, with A227K, N322A counted along it

human KOR (Gi2) [11] = target: T11, human KOR (Gi2) (Homo sapiens, UniProt P41145, L253A)
T11 construct: expressed in transfected cells; host or cells: HEK293T
T11 sequence (P41145 whole entry L253A): as the sequence (P41145 whole entry K227A) above, with A227K, L253A counted along it

human KOR (Gi2) [12] = target: T12, human KOR (Gi2) (Homo sapiens, UniProt P41145, N326A)
T12 construct: expressed in transfected cells; host or cells: HEK293T
T12 sequence (P41145 whole entry N326A): as the sequence (P41145 whole entry K227A) above, with A227K, N326A counted along it

human KOR (Gi2) [13] = target: T13, human KOR (Gi2) (Homo sapiens, UniProt P41145, D105A); conditions: HEK-293T
T13 construct: expressed in transfected cells; host or cells: HEK293T
T13 sequence (P41145 whole entry D105A): as the sequence (P41145 whole entry K227A) above, with D105A, A227K counted along it

human KOR (Gi2) [14] = target: T14, human KOR (Gi2) (Homo sapiens, UniProt P41145, R170A); conditions: HEK-293T
T14 construct: expressed in transfected cells; host or cells: HEK293T
T14 sequence (P41145 whole entry R170A): as the sequence (P41145 whole entry K227A) above, with R170A, A227K counted along it

human KOR (Gi2) [15] = target: T15, human KOR (Gi2) (Homo sapiens, UniProt P41145, R257A)
T15 construct: expressed in transfected cells; host or cells: HEK293T
T15 sequence (P41145 whole entry R257A): as the sequence (P41145 whole entry K227A) above, with A227K, R257A counted along it

human KOR (Gi2) [16] = target: T16, human KOR (Gi2) (Homo sapiens, UniProt P41145, D155A)
T16 construct: expressed in transfected cells; host or cells: HEK293T
T16 sequence (P41145 whole entry D155A): as the sequence (P41145 whole entry K227A) above, with D155A, A227K counted along it

human KOR (Gi2) [17] = target: T17, human KOR (Gi2) (Homo sapiens, UniProt P41145, F283A)
T17 construct: expressed in transfected cells; host or cells: HEK293T
T17 sequence (P41145 whole entry F283A): as the sequence (P41145 whole entry K227A) above, with A227K, F283A counted along it

human KOR (Gi2) [18] = target: T18, human KOR (Gi2) (Homo sapiens, UniProt P41145, F114L)
T18 construct: expressed in transfected cells; host or cells: HEK293T
T18 sequence (P41145 whole entry F114L): as the sequence (P41145 whole entry K227A) above, with F114L, A227K counted along it

human KOR [19] = target: T19, human KOR (Homo sapiens, UniProt P41145, V134A); conditions: HEK-293T
T19 construct: expressed in transfected cells; host or cells: HEK 293T (ATCC, CRL-3216)
T19 sequence (P41145 whole entry V134A): as the sequence (P41145 whole entry K227A) above, with V134A, A227K counted along it

human KOR [20] = target: T20, human KOR (Homo sapiens, UniProt P41145, E209A); conditions: HEK-293T
T20 construct: expressed in transfected cells; host or cells: HEK 293T (ATCC, CRL-3216)
T20 sequence (P41145 whole entry E209A): as the sequence (P41145 whole entry K227A) above, with E209A, A227K counted along it

human KOR [21] = target: T21, human KOR (Homo sapiens, UniProt P41145, F114L); conditions: HEK-293T
T21 construct: expressed in transfected cells; host or cells: HEK 293T (ATCC, CRL-3216)
T21 sequence (P41145 whole entry F114L): as the sequence (P41145 whole entry K227A) above, with F114L, A227K counted along it

human KOR [22] = target: T22, human KOR (Homo sapiens, UniProt P41145, Q115N); conditions: HEK-293T
T22 construct: expressed in transfected cells; host or cells: HEK 293T (ATCC, CRL-3216)
T22 sequence (P41145 whole entry Q115N): as the sequence (P41145 whole entry K227A) above, with Q115N, A227K counted along it

human KOR [23] = target: T23, human KOR (Homo sapiens, UniProt P41145, Y320L); conditions: HEK-293T
T23 construct: expressed in transfected cells; host or cells: HEK 293T (ATCC, CRL-3216)
T23 sequence (P41145 whole entry Y320L): as the sequence (P41145 whole entry K227A) above, with A227K, Y320L counted along it

human KOR [24] = target: T24, human KOR (Homo sapiens, UniProt P41145, S324C); conditions: HEK-293T
T24 construct: expressed in transfected cells; host or cells: HEK 293T (ATCC, CRL-3216)
T24 sequence (P41145 whole entry S324C): as the sequence (P41145 whole entry K227A) above, with A227K, S324C counted along it

KOR Q115N = KOR Q115N (Homo sapiens, UniProt P41145, Q115N); design: expressed in transfected cells; host or cells: HEK 293T (ATCC, CRL-3216); conditions: read-out: cAMP response (Figure S4C), KOR Q115N, Log [Drug], replicate values
Chain of KOR Q115N (P41145 whole entry Q115N): as the sequence (P41145 whole entry K227A) above, with Q115N, A227K counted along it

CN(C(=O)/C=C/c1ccoc1)[C@@H]1CC[C@@]2(O)[C@H]3Cc4ccc(O)c5c4[C@@]2(CCN3CC2CC2)[C@H]1O5 [Nalfurafine, nalfurafine]
FC vs wild type (human KOR (Gi2) [1]): 1 | Emax (human KOR (Gi2) [1]; HEK-293T): 101% | FC vs wild type (human KOR (Gi2) [2]): 269 | Emax (human KOR (Gi2) [2]; HEK-293T): 86.1% | FC vs wild type (human KOR (Gi2) [3]): 2 | Emax (human KOR (Gi2) [3]; HEK-293T): 95.8% | FC vs wild type (human KOR (Gi2) [4]): 1 | FC vs wild type (human KOR (Gi2) [5]): 110 | Emax (human KOR (Gi2) [5]; HEK-293T): 107% | FC vs wild type (human KOR (Gi2) [6]): 17 | Emax (human KOR (Gi2) [6]; HEK-293T): 116% | FC vs wild type (human KOR (Gi2) [7]): 24 | Emax (human KOR (Gi2) [7]; HEK-293T): 60% | FC vs wild type (human KOR (Gi2) [8]): 2 | Emax (human KOR (Gi2) [8]; HEK-293T): 104% | FC vs wild type (human KOR (Gi2) [9]): 2 | Emax (human KOR (Gi2) [9]; HEK-293T): 106% | FC vs wild type (human KOR (Gi2) [10]): 178 | Emax (human KOR (Gi2) [10]; HEK-293T): 77.2% | FC vs wild type (human KOR (Gi2) [11]): 87 and 100 | Emax (human KOR (Gi2) [11]; HEK-293T): 105% | FC vs wild type (human KOR (Gi2) [12]): 3 | Emax (human KOR (Gi2) [12]; HEK-293T): 101% | Emax (human KOR (Gi2) [13]): 96.1% | Emax (human KOR (Gi2) [14]): 57.6% | FC vs wild type (human KOR (Gi2) [15]): 100 | Emax (human KOR (Gi2) [15]; HEK-293T): 104% | FC vs wild type (human KOR (Gi2) [16]): 20 and < 10 | Emax (human KOR (Gi2) [16]; HEK-293T): 82% | FC vs wild type (human KOR (Gi2) [17]): 7 | Emax (human KOR (Gi2) [17]; HEK-293T): 79% | FC vs wild type (human KOR (Gi2) [18]): 18 | Emax (human KOR (Gi2) [18]; HEK-293T): 56.9% | Emax (human KOR [19]): 93 ± 3% | activation at 3.162 pM (human KOR [19]; read-out: cAMP response): 23.5% | activation at 10 pM (human KOR [19]; read-out: cAMP response): 48.2% | activation at 31.62 pM (human KOR [19]; read-out: cAMP response): 53.1% | activation at 0.0001 µM (human KOR [19]; read-out: cAMP response): 62.8% | activation at 0.001 µM (human KOR [19]; read-out: cAMP response): 82.5% | activation at 0.01 µM (human KOR [19]; read-out: cAMP response): 96.2% | activation at 0.1 µM (human KOR [19]; read-out: cAMP response): 104% | activation at 1 µM (human KOR [19]; read-out: cAMP response): 96.6% | activation at […] (human KOR [19]; read-out: cAMP response): 58.2% and 90% and 99.4% and 95.7% | Emax (human KOR [20]): 100 ± 2% | activation at 1 pM (human KOR [20]; read-out: cAMP response): 28.4% | activation at 3.162 pM (human KOR [20]; read-out: cAMP response): 77.1% | activation at 10 pM (human KOR [20]; read-out: cAMP response): 90.6% | activation at 31.62 pM (human KOR [20]; read-out: cAMP response): 94.9% | activation at 0.0001 µM (human KOR [20]; read-out: cAMP response): 99.2% | activation at 0.001 µM (human KOR [20]; read-out: cAMP response): 99.5% | activation at 0.01 µM (human KOR [20]; read-out: cAMP response): 101% | activation at 0.1 µM (human KOR [20]; read-out: cAMP response): 100% | activation at 1 µM (human KOR [20]; read-out: cAMP response): 98.2% | activation at […] (human KOR [20]; read-out: cAMP response): 96.6% and 99.9% and 99.6% and 98.7% | Emax (human KOR [21]): 97 ± 4% | activation at 3.162 pM (human KOR [21]; read-out: cAMP response): 9.34% | activation at 31.62 pM (human KOR [21]; read-out: cAMP response): 29.6% | activation at 0.0001 µM (human KOR [21]; read-out: cAMP response): 36.4% | activation at 0.001 µM (human KOR [21]; read-out: cAMP response): 68% | activation at 0.01 µM (human KOR [21]; read-out: cAMP response): 90.9% | activation at 0.1 µM (human KOR [21]; read-out: cAMP response): 99.9% | activation at 1 µM (human KOR [21]; read-out: cAMP response): 97.6% | activation at […] (human KOR [21]; read-out: cAMP response): 66.6% and 88.8% and 97.4% and 103% | Emax (human KOR [22]): 98 ± 3% | Emax (human KOR [23]): 105 ± 2% | activation at 1 pM (human KOR [23]; read-out: cAMP response): 16.5% | activation at 3.162 pM (human KOR [23]; read-out: cAMP response): 13.2% | activation at 10 pM (human KOR [23]; read-out: cAMP response): 16.1% | activation at 31.62 pM (human KOR [23]; read-out: cAMP response): 35.7% | activation at 0.0001 µM (human KOR [23]; read-out: cAMP response): 59% | activation at 0.001 µM (human KOR [23]; read-out: cAMP response): 95.7% | activation at 0.01 µM (human KOR [23]; read-out: cAMP response): 103% | activation at 0.1 µM (human KOR [23]; read-out: cAMP response): 105% | activation at 1 µM (human KOR [23]; read-out: cAMP response): 105% | activation at […] (human KOR [23]; read-out: cAMP response): 78.6% and 99.7% and 105% (2×) | Emax (human KOR [24]): 99 ± 2% | activation at 1 µM (KOR Q115N; M -6): 99.3% | activation at […] (KOR Q115N; M -6.5): 94.1% | activation at 0.1 µM (KOR Q115N; M -7): 101% | activation at […] (KOR Q115N; M -7.5): 96.7% | activation at 0.01 µM (KOR Q115N; M -8): 100% | activation at […] (KOR Q115N; M -8.5): 91.3% | activation at 0.001 µM (KOR Q115N; M -9): 89.3% | activation at […] (KOR Q115N; M -9.5): 82.2% | activation at 0.0001 µM (KOR Q115N; M -10): 67.6% | activation at 10 pM (KOR Q115N; M -11): 7.51%
